Source: PubChem BioAssay (NCI)
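Test compounds were applied to cells in 96-well plates for 48 hours at 5 doses. Abbreviation: GI50, concentration required for 50% inhibition of growth. TGI denotes the concentration required for complete inhibition of growth.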

Assays:
Experiment in all cases: inhibition of tumour cell growth, NCI panel, 48 h
UO-31 renal = test system: UO-31 renal
SNB-19 CNS = test system: SNB-19 CNS
KM12 colon = test system: KM12 colon
CCRF-CEM leukemia = test system: CCRF-CEM leukemia
RPMI-8226 leukemia = test system: RPMI-8226 leukemia
HCC-2998 colon = test system: HCC-2998 colon
SW-620 colon = test system: SW-620 colon
IGROV1 ovarian = test system: IGROV1 ovarian
CAKI-1 renal = test system: CAKI-1 renal

Compound	TGI (UO-31 renal) [µM]	TGI (SNB-19 CNS) [µM]	TGI (KM12 colon) [µM]	TGI (CCRF-CEM leukemia) [µM]	TGI (RPMI-8226 leukemia) [µM]	TGI (HCC-2998 colon) [µM]	TGI (SW-620 colon) [µM]	TGI (IGROV1 ovarian) [µM]	TGI (CAKI-1 renal) [µM]	GI50 (UO-31 renal) [µM]	GI50 (SNB-19 CNS) [µM]	GI50 (KM12 colon) [µM]	GI50 (CCRF-CEM leukemia) [µM]	GI50 (RPMI-8226 leukemia) [µM]	GI50 (HCC-2998 colon) [µM]	GI50 (SW-620 colon) [µM]	GI50 (IGROV1 ovarian) [µM]	GI50 (CAKI-1 renal) [µM]
[N-]=[N+]=NC12CC3C4CC5CC3C(C1)C(C5)C4C2	> 100	> 100	> 100	> 100	> 100	> 100	> 100	> 100	> 100									
O=[N+]([O-])c1ccc(C2=Nn3cnnc3SC2)o1	36.5	79	47.6	51.1	42.5	29.2	25.3											
COC1(OC)CC2C(=O)N(Cc3ccccc3)C1C(S(=O)(=O)c1ccccc1)C2S(=O)(=O)c1ccccc1 (stereo unspecified)	31.3	> 100	34.1	13.7	45.5	31.1	13.6	32.3	26.9									
Cc1nn(-c2ccccc2)c2nc(N3CCOCC3)nnc12	> 100	> 100	> 100	> 100	> 100	> 100	> 100	> 100	> 100									
CCCCC(C(=O)C(=O)NC1C2CC3CC(C2)CC1C3)C(=O)C(C)C (stereo unspecified)	> 100	> 100	> 100	> 100	> 100	> 100	> 100	> 100	> 100									
COc1ccc2c3c([nH]c2c1[N+](=O)[O-])C(C)=NCC3	> 100	> 100	> 100	> 100	> 100	> 100	> 100	77.2	> 100									
CCN1CCN(C(c2ccc(C(F)(F)F)cc2)c2ccc3cccnc3c2O)CC1 (stereo unspecified)	9.04	19.8	16.8	7.85	16.7	12.2	19.9	12.4	9.36	1.59	1.51	0.89	1.45	0.798	0.88	4.42	2.04	2.55
O=S1(=O)C[C@H](O)[C@H](O)CS1	> 100	> 100	> 100		> 100	> 100	> 100	> 100	> 100									
COC(=O)C1=C(O)c2cc(OC)c(OC)cc2C(c2ccc(OC)c(OC)c2)C1 (stereo unspecified)	> 100		> 100	> 100	> 100	> 100	> 100	> 100	> 100									
